# Test results as given in patent publication US20200024278A1, “COMPOSITION COMPRISING ANTIBIOTIC COMPOUND AND AN HETEROCYCLIC COMPOUND AND THEIR USE IN PREVENTING OR TREATING BACTERIAL INFECTIONS” (MUTABILIS, priority 2016, published 2020).
# Key:
# Assay in all cases: MIC, broth microdilution (CLSI), substance alone or ATB combined with compound at 4 or 8 μg/mL
# ECO 190317 = format: cell-based, E. coli; conditions: ECO 190317; for MIC ATB combined with Example 13 @8 μg/ml: with Example 13 at 8 μg/ml
# Description: (§1) Compounds of the present invention were assessed against genotyped bacterial strains alone or in combination with an antibacterial. In the assays, MICs of said compounds or combination of antibiotics with fixed concentrations of said compounds (4 or 8 μg/mL) were determined by the broth microdilution method according to the Clinical Laboratory Standards Institute (CLSI-M7-A7). Briefly, compounds alone according to the invention were prepared in DMSO and spotted (2 μL each) on sterile polystyrene plates (Corning, 3788). Combinations of compounds and antibiotics dilutions were prepared in DMSO and spotted (1 μL each) on sterile polystyrene plates (Corning, 3788). Log phase bacterial suspensions were adjusted to a final density of 5·10^5 CFU/mL in cation-adjusted Mueller-Hinton broth (ca-MHB; Becton-Dickinson and Company) and added to each well (98 μL). Assays including Fosfomycin were supplemented with 25 μg/ml of Glucose-6-phosphate. Microplates were incubated for 16-20 h at 35° C. in ambient air. The MIC of the compounds was defined as the lowest concentration of said compounds that prevented bacterial growth as read by visual inspection. The MIC of ATB at each compound concentration was defined as the lowest concentration of ATB that prevented bacterial growth as read by visual inspection.
# ECO UFR39 = format: cell-based, E. coli; conditions: ECO UFR39; for MIC ATB combined with Example 13 @8 μg/ml: with Example 13 at 8 μg/ml
# Description: as §1
# ECL P99 = format: cell-based, E. cloacae; conditions: ECL P99
# Description: as §1
# PAE 105250 = format: cell-based, P. aeruginosa; conditions: PAE 105250; for MIC ATB combined with Example 12 @8 μg/ml: with Example 12 at 8 μg/ml; for MIC ATB combined with Example 14 @8 μg/ml: with Example 14 at 8 μg/ml; for MIC ATB combined with Example 16 @4 μg/ml: with Example 16 at 4 μg/ml
# Description: as §1
# PAE UFR48 = format: cell-based, P. aeruginosa; conditions: PAE UFR48; for MIC ATB combined with Example 12 @8 μg/ml: with Example 12 at 8 μg/ml; for MIC ATB combined with Example 16 @4 μg/ml: with Example 16 at 4 μg/ml
# Description: as §1
# PAE UFR90 = format: cell-based, P. aeruginosa; conditions: PAE UFR90; for MIC ATB combined with Example 12 @8 μg/ml: with Example 12 at 8 μg/ml; for MIC ATB combined with Example 14 @8 μg/ml: with Example 14 at 8 μg/ml; for MIC ATB combined with Example 16 @4 μg/ml: with Example 16 at 4 μg/ml
# Description: as §1
# SAU 29213 = format: cell-based, S. aureus; conditions: SAU 29213; for MIC ATB alone: antibiotic alone; for MIC ATB combined with Example 7 @8 μgml: with Example 7 at 8 μg/ml; for MIC ATB combined with Example 11 @8 μg/ml: with Example 11 at 8 μg/ml; for MIC ATB combined with Example 13 @8 μg/ml: with Example 13 at 8 μg/ml
# Description: as §1
# SPN 49619 = format: cell-based, S. pneumoniae; conditions: SPN 49619; for MIC ATB combined with Example 7 @8 μgml: with Example 7 at 8 μg/ml; for MIC ATB combined with Example 11 @8 μg/ml: with Example 11 at 8 μg/ml; for MIC ATB combined with Example 13 @8 μg/ml: with Example 13 at 8 μg/ml; for MIC ATB combined with Example 15 @4 μgml: with Example 15 at 4 μg/ml
# Description: as §1
smiles,measurement,setting,value
O=C(N[C@H](CO)[C@H](O)c1ccc([N+](=O)[O-])cc1)C(Cl)Cl [CM],MIC ATB alone,ECO 190317; antibiotic alone,8 µg/mL
same,MIC ATB combined with Example 1 @8 μg/ml,ECO 190317; with Example 1 @8 μg/ml,<0.031 µg/mL
same,MIC ATB combined with Example 1 @8 μg/ml,ECO 190317; with Example 1 at 8 μg/ml,<0.031 µg/mL
same,MIC ATB combined with Example 7 @8 μgml,ECO 190317; with Example 7 at 8 μg/ml,<0.031 µg/mL
same,MIC ATB combined with Example 13 @8 μg/ml,ECO 190317,<0.031 µg/mL
same,MIC ATB alone,ECO UFR39; antibiotic alone,64 µg/mL
same,MIC ATB combined with Example 1 @8 μg/ml,ECO UFR39; with Example 1 @8 μg/ml,<0.031 µg/mL
same,MIC ATB combined with Example 1 @8 μg/ml,ECO UFR39; with Example 1 at 8 μg/ml,<0.031 µg/mL
same,MIC ATB combined with Example 7 @8 μgml,ECO UFR39; with Example 7 at 8 μg/ml,<0.031 µg/mL
same,MIC ATB combined with Example 13 @8 μg/ml,ECO UFR39,<=0.031 μg/mL
same,MIC ATB alone,ECL P99; antibiotic alone,512 µg/mL
same,MIC ATB combined with Example 1 @8 μg/ml,ECL P99; with Example 1 @8 μg/ml,<0.031 µg/mL
same,MIC ATB combined with Example 1 @8 μg/ml,ECL P99; with Example 1 at 8 μg/ml,<0.031 µg/mL
same,MIC ATB combined with Example 12 @8 μg/ml,PAE 105250,>32 µg/mL
same,MIC ATB combined with Example 14 @8 μg/ml,PAE 105250,>32 µg/mL
same,MIC ATB combined with Example 16 @4 μg/ml,PAE 105250,>32 µg/mL
same,MIC ATB alone,PAE UFR48; antibiotic alone,512 µg/mL
same,MIC ATB combined with Example 1 @8 μg/ml,PAE UFR48; with Example 1 @8 μg/ml,<0.031 µg/mL
same,MIC ATB combined with Example 1 @8 μg/ml,PAE UFR48; with Example 1 at 8 μg/ml,<0.031 µg/mL
same,MIC ATB combined with Example 12 @8 μg/ml,PAE UFR48,>32 µg/mL
same,MIC ATB combined with Example 14 @8 μg/ml,PAE UFR48; with Example 14 at 8 μg/ml,>32 µg/mL
same,MIC ATB combined with Example 16 @4 μg/ml,PAE UFR48,>32 µg/mL
same,MIC ATB alone,PAE UFR90; antibiotic alone,>1024 µg/mL
same,MIC ATB combined with Example 1 @8 μg/ml,PAE UFR90; with Example 1 @8 μg/ml,<0.031 µg/mL
same,MIC ATB combined with Example 1 @8 μg/ml,PAE UFR90; with Example 1 at 8 μg/ml,<0.031 µg/mL
same,MIC ATB combined with Example 12 @8 μg/ml,PAE UFR90,>32 µg/mL
same,MIC ATB combined with Example 14 @8 μg/ml,PAE UFR90,>32 µg/mL
same,MIC ATB combined with Example 16 @4 μg/ml,PAE UFR90,>32 µg/mL
same,MIC ATB alone,SAU 29213,16 µg/mL
same,MIC ATB combined with Example 1 @8 μg/ml,SAU 29213; with Example 1 @8 μg/ml,16 µg/mL
same,MIC ATB combined with Example 1 @8 μg/ml,SAU 29213; with Example 1 at 8 μg/ml,16 µg/mL
same,MIC ATB combined with Example 7 @8 μgml,SAU 29213,4 µg/mL
same,MIC ATB combined with Example 11 @8 μg/ml,SAU 29213,<=0.031 μg/mL
same,MIC ATB combined with Example 13 @8 μg/ml,SAU 29213,4 µg/mL
same,MIC ATB combined with Example 15 @4 μgml,SAU 29213; with Example 15 at 4 μg/ml,0.063 µg/mL
same,MIC ATB alone,SPN 49619; antibiotic alone,4 µg/mL
same,MIC ATB combined with Example 1 @8 μg/ml,SPN 49619; with Example 1 @8 μg/ml,4 µg/mL
same,MIC ATB combined with Example 1 @8 μg/ml,SPN 49619; with Example 1 at 8 μg/ml,4 µg/mL
same,MIC ATB combined with Example 7 @8 μgml,SPN 49619,2 µg/mL
same,MIC ATB combined with Example 11 @8 μg/ml,SPN 49619,2 µg/mL
same,MIC ATB combined with Example 13 @8 μg/ml,SPN 49619,2 µg/mL
same,MIC ATB combined with Example 15 @4 μgml,SPN 49619,2 µg/mL
same,MIC ATB combined with Example 16 @4 μg/ml,SPN 49619; with Example 16 at 4 μg/ml,<=0.031 μg/mL
CO/N=C(\C(=O)N[C@@H]1C(=O)N2C(C(=O)O)=C(CSc3nc(=O)c(O)nn3C)CS[C@H]12)c1csc(N)n1 [CTR],MIC ATB combined with Example 1 @8 μg/ml,ECO 190317; with Example 1 @8 μg/ml,<0.031 µg/mL
same,MIC ATB combined with Example 1 @8 μg/ml,ECO 190317; with Example 1 at 8 μg/ml,<0.031 µg/mL
same,MIC ATB combined with Example 13 @8 μg/ml,ECO 190317,<0.031 µg/mL
same,MIC ATB combined with Example 13 @8 μg/ml,ECO UFR39,<0.031 µg/mL
same,MIC ATB combined with Example 1 @8 μg/ml,ECL P99; with Example 1 @8 μg/ml,<0.031 µg/mL
same,MIC ATB combined with Example 1 @8 μg/ml,ECL P99; with Example 1 at 8 μg/ml,<0.031 µg/mL
same,MIC ATB combined with Example 7 @8 μgml,ECL P99; with Example 7 at 8 μg/ml,2 µg/mL
same,MIC ATB combined with Example 13 @8 μg/ml,ECL P99; with Example 13 at 8 μg/ml,1 µg/mL
same,MIC ATB combined with Example 1 @8 μg/ml,PAE 105250; with Example 1 @8 μg/ml,<0.031 µg/mL
same,MIC ATB combined with Example 1 @8 μg/ml,PAE 105250; with Example 1 at 8 μg/ml,<0.031 µg/mL
same,MIC ATB combined with Example 11 @8 μg/ml,PAE 105250; with Example 11 at 8 μg/ml,32 µg/mL
same,MIC ATB combined with Example 12 @8 μg/ml,PAE 105250,>32 µg/mL
same,MIC ATB combined with Example 14 @8 μg/ml,PAE 105250,>32 µg/mL
same,MIC ATB combined with Example 15 @4 μgml,PAE 105250; with Example 15 at 4 μg/ml,32 µg/mL
same,MIC ATB combined with Example 16 @4 μg/ml,PAE 105250,>32 µg/mL
same,MIC ATB combined with Example 1 @8 μg/ml,PAE UFR48; with Example 1 @8 μg/ml,<0.031 µg/mL
same,MIC ATB combined with Example 1 @8 μg/ml,PAE UFR48; with Example 1 at 8 μg/ml,<0.031 µg/mL
same,MIC ATB combined with Example 7 @8 μgml,PAE UFR48; with Example 7 at 8 μg/ml,>32 µg/mL
same,MIC ATB combined with Example 11 @8 μg/ml,PAE UFR48; with Example 11 at 8 μg/ml,>32 µg/mL
same,MIC ATB combined with Example 12 @8 μg/ml,PAE UFR48,>32 µg/mL
same,MIC ATB combined with Example 15 @4 μgml,PAE UFR48; with Example 15 at 4 μg/ml,>32 µg/mL
same,MIC ATB combined with Example 16 @4 μg/ml,PAE UFR48,>32 µg/mL
same,MIC ATB combined with Example 1 @8 μg/ml,PAE UFR90; with Example 1 @8 μg/ml,<0.031 µg/mL
same,MIC ATB combined with Example 1 @8 μg/ml,PAE UFR90; with Example 1 at 8 μg/ml,<0.031 µg/mL
same,MIC ATB combined with Example 7 @8 μgml,PAE UFR90; with Example 7 at 8 μg/ml,>32 µg/mL
same,MIC ATB combined with Example 11 @8 μg/ml,PAE UFR90; with Example 11 at 8 μg/ml,32 µg/mL
same,MIC ATB combined with Example 12 @8 μg/ml,PAE UFR90,>32 µg/mL
same,MIC ATB combined with Example 14 @8 μg/ml,PAE UFR90,>32 µg/mL
same,MIC ATB combined with Example 16 @4 μg/ml,PAE UFR90,>32 µg/mL
same,MIC ATB alone,SAU 29213,8 µg/mL
same,MIC ATB combined with Example 1 @8 μg/ml,SAU 29213; with Example 1 @8 μg/ml,4 µg/mL
same,MIC ATB combined with Example 1 @8 μg/ml,SAU 29213; with Example 1 at 8 μg/ml,4 µg/mL
same,MIC ATB combined with Example 7 @8 μgml,SAU 29213,2 µg/mL
same,MIC ATB combined with Example 11 @8 μg/ml,SAU 29213,<=0.031 μg/mL
same,MIC ATB combined with Example 13 @8 μg/ml,SAU 29213,4 µg/mL
same,MIC ATB combined with Example 7 @8 μgml,SPN 49619,0.063 µg/mL
same,MIC ATB combined with Example 9 @4 μg/ml,SPN 49619; with Example 9 @4 μg/ml,<=0.031 μg/mL
same,MIC ATB combined with Example 9 @4 μg/ml,SPN 49619; with Example 9 at 4 μg/ml,<=0.031 μg/mL
same,MIC ATB combined with Example 11 @8 μg/ml,SPN 49619,<=0.031 μg/mL
same,MIC ATB combined with Example 13 @8 μg/ml,SPN 49619,<=0.031 μg/mL
same,MIC ATB combined with Example 15 @4 μgml,SPN 49619,<=0.031 μg/mL
